Measurements published in US12649751B2 (Arcus Biosciences, Inc., priority 2022, dated 2026).
pIC50: −log10 of the molar value.

What follows are compounds tested against HPK1 (Homo sapiens, UniProt Q92918) (assay: HPK1 Biochemical Assay (ADP-Glo luminescence; low ATP 10 μM or high ATP 200 μM)). Details: 2 nM HPK1, 10 μM ATP; read-out: Biochemical Potency (low ATP).
Chain of HPK1 (Q92918 whole entry, species assumed): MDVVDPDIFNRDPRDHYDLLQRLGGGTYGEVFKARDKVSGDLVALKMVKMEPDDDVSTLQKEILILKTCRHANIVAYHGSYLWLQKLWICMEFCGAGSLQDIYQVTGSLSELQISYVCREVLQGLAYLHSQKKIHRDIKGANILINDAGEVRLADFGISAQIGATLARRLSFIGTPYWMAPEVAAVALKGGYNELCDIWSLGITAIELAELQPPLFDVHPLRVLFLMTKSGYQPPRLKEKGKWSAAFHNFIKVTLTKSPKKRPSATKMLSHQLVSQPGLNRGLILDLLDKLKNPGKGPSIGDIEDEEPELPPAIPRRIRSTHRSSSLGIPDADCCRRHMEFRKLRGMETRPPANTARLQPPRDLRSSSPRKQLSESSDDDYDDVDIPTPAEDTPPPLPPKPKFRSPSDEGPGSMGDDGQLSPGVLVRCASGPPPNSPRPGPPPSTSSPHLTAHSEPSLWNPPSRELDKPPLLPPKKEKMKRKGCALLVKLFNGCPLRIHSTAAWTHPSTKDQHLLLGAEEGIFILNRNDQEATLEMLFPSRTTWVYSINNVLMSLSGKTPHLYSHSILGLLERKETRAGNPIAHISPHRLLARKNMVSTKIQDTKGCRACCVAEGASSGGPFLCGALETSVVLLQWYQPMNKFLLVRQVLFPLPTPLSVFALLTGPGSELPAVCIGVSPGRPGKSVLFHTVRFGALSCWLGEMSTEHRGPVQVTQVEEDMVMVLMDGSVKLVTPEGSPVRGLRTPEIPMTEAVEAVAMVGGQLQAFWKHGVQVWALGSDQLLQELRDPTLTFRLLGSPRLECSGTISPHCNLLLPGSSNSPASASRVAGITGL
Method: Dose-response assays were performed in Corning® Low Volume 384-well assay plates containing 100 nL of 22 serial 2-fold compound dilutions. Wells containing DMSO alone were used as negative control. A kinase mixture (5 μL) containing 2 nM HPK1 (or 5 nM for high ATP assay) in assay buffer (50 mM Hepes pH 7.4, 10 mM MgCl2, 0.01% Brij-15, 0.01% bovine serum albumin, and 1 mM dithiothreitol) was added to the assay plates and incubated at 25° C. for 1 hour. Wells without HPK1 were used as positive control. A […] of 10 μM ATP (or 200 μM for high ATP) and 0.2 μg/μL […] was then added to the wells, resulting in a 10 μL total reaction volume. Following incubation of the assay plates at 25° C. for 1 hour, 10 μL of ADP-Glo reagent was added to the wells and the plates were incubated at 25° C. for a further 40 minutes (or 1 hour for high ATP assay). Finally, 20 μL of Kinase Detection Reagent was added, and the plates were incubated for another 30 minutes at 25° C. An Envision plate reader was then used to detect the luminescence signals. IC50 values were determined by fitting the data to a standard 4-parameter logistic equation. The results are summarized in the Biochemical Potency columns of Tables 4 and 5 below (Biochemical Potency (high ATP); Biochemical Potency (low ATP)).
Cc1cccnc1-c1nc2cc(Nc3ccc(C)c(N4C[C@@H](N)C[C@@H]4CO)n3)ncc2s1 [Example 68, [(4S)-4-Amino-1-(3-methyl-6-{[2-(3-methylpyridin-2-yl)-[1,3]thiazolo[5,4-c]pyridin-6-yl]amino}pyridin-2-yl)pyrrolidin-2-yl]methanol] was tested, and the pIC50 was greater than 7.00. Work on Cc1cccnc1-c1nc2cc(Nc3ccc(C)c(N4CCC[C@H]4CN)n3)ncc2s1 [Example 72, 6-[(2S)-2-(Aminomethyl)pyrrolidin-1-yl]-5-methyl-N-[2-(3-methylpyridin-2-yl)-[1,3]thiazolo[5,4-c]pyridin-6-yl]pyridin-2-amine] yielded a pIC50 greater than 7.00. Cc1cc(Nc2cc3nc(-c4ccnc(C)c4)sc3cn2)nc(N2CCC(C)(N)C2)c1 (stereo not drawn) [Example 73, 6-(3-Amino-3-methylpyrrolidin-1-yl)-4-methyl-N-[2-(2-methylpyridin-4-yl)-[1,3]thiazolo[5,4-c]pyridin-6-yl]pyridin-2-amine] was tested, and the pIC50 was greater than 7.00. Cc1cccnc1-c1nc2cc(Nc3ccc(C)c(N4CC[C@H](N)C4)n3)ncc2s1 [Example 75, 6-[(3S)-3-Aminopyrrolidin-1-yl]-5-methyl-N-[2-(3-methylpyridin-2-yl)-[1,3]thiazolo[5,4-c]pyridin-6-yl]pyridin-2-amine] showed a pIC50 greater than 7.00. For Cc1cccnc1-c1nc2cc(Nc3ccc(C)c(N4C[C@H](O)C[C@H]4CO)n3)ncc2s1 [Example 77, (3R,5S)-5-(Hydroxymethyl)-1-(3-methyl-6-{[2-(3-methylpyridin-2-yl)-[1,3]thiazolo[5,4-c]pyridin-6-yl]amino}pyridin-2-yl)pyrrolidin-3-ol], the pIC50 was greater than 7.00. Compound Cc1cccnc1-c1nc2cc(Nc3cc(N4C[C@@H]5C[C@H]4CN5)ccn3)ncc2s1 [Example 86, 4-[(1S,4S)-2,5-Diazabicyclo[2.2.1]heptan-2-yl]-N-[2-(3-methylpyridin-2-yl)-[1,3]thiazolo[5,4-c]pyridin-6-yl]pyridin-2-amine] has a pIC50 of less than 5.30. With Cc1cccnc1-c1nc2cc(Nc3cccc(N4C[C@H]5C[C@@H]4CN5C)n3)ncc2s1 [Example 91, 6-[(1R,4R)-5-Methyl-2,5-diazabicyclo[2.2.1]heptan-2-yl]-N-[2-(3-methylpyridin-2-yl)-[1,3]thiazolo[5,4-c]pyridin-6-yl]pyridin-2-amine] the pIC50 was greater than 7.00. With Cc1cccnc1-c1nc2cc(Nc3cccc(N4CCN(C)[C@@H](C)C4)n3)ncc2s1 [Example 94, 6-[(3S)-3,4-Dimethylpiperazin-1-yl]-N-[2-(3-methylpyridin-2-yl)-[1,3]thiazolo[5,4-c]pyridin-6-yl]pyridin-2-amine] the pIC50 was greater than 7.00. For Cc1cccnc1-c1nc2cc(Nc3cccc(N4CCN(C)C[C@@H]4C)n3)ncc2s1 [Example 95, 6-[(2S)-2,4-Dimethylpiperazin-1-yl]-N-[2-(3-methylpyridin-2-yl)-[1,3]thiazolo[5,4-c]pyridin-6-yl]pyridin-2-amine], the pIC50 was 5.30 to 6.00. Compound Cc1cccnc1-c1nc2cc(Nc3cccc(N4CC5CC(C4)N5C)n3)ncc2s1 [Example 98, 6-{6-Methyl-3,6-diazabicyclo[3.1.1]heptan-3-yl}-N-[2-(3-methylpyridin-2-yl)-[1,3]thiazolo[5,4-c]pyridin-6-yl]pyridin-2-amine] has a pIC50 greater than 7.00. For Cc1cccnc1-c1nc2cc(Nc3cccc(N4C5CC4CN(C)C5)n3)ncc2s1 [Example 99, 6-{3-Methyl-3,6-diazabicyclo[3.1.1]heptan-6-yl}-N-[2-(3-methylpyridin-2-yl)-[1,3]thiazolo[5,4-c]pyridin-6-yl]pyridin-2-amine], the pIC50 was 5.30 to 6.00. For Cc1cccnc1-c1nc2cc(Nc3cccc(N4C[C@H](C)N(C)[C@@H](C)C4)n3)ncc2s1 [Example 102, N-[2-(3-Methylpyridin-2-yl)-[1,3]thiazolo[5,4-c]pyridin-6-yl]-6-[(3S,5S)-3,4,5-trimethylpiperazin-1-yl]pyridin-2-amine], the pIC50 was 6.00 to 7.00. For Cc1cccnc1-c1nc2cc(Nc3cccc(N4CCN(C)C[C@H]4C)n3)ncc2s1 [Example 103, 6-[(2R)-2,4-Dimethylpiperazin-1-yl]-N-[2-(3-methylpyridin-2-yl)-[1,3]thiazolo[5,4-c]pyridin-6-yl]pyridin-2-amine], the pIC50 was 6.00 to 7.00. In the case of Cc1cccnc1-c1nc2cc(Nc3cccc(N4CCN(C)[C@H](C)C4)n3)ncc2s1 [Example 104, 6-[(3R)-3,4-Dimethylpiperazin-1-yl]-N-[2-(3-methylpyridin-2-yl)-[1,3]thiazolo[5,4-c]pyridin-6-yl]pyridin-2-amine], the pIC50 was greater than 7.00. Cc1cccnc1-c1nc2cc(Nc3ccc(C)c(N4C[C@H]5CC[C@@H](C4)[C@H]5O)n3)ncc2s1 [Example 106, (1R,5S,8S)-3-(3-Methyl-6-{[2-(3-methylpyridin-2-yl)-[1,3]thiazolo[5,4-c]pyridin-6-yl]amino}pyridin-2-yl)-3-azabicyclo[3.2.1]octan-8-ol] showed a pIC50 greater than 7.00. Work on Cc1cccnc1-c1nc2cc(Nc3cccc(N4CC5CCC(C4)N5C)n3)ncc2s1 [Example 107, 6-{8-Methyl-3,8-diazabicyclo[3.2.1]octan-3-yl}-N-[2-(3-methylpyridin-2-yl)-[1,3]thiazolo[5,4-c]pyridin-6-yl]pyridin-2-amine] yielded a pIC50 greater than 7.00. With Cc1cccnc1-c1nc2cc(Nc3cccc(N4C[C@@H]5CCN(C)[C@@H]5C4)n3)ncc2s1 [Example 111, 6-[(3aS,6aS)-1-Methyl-octahydropyrrolo[3,4-b]pyrrol-5-yl]-N-[2-(3-methylpyridin-2-yl)-[1,3]thiazolo[5,4-c]pyridin-6-yl]pyridin-2-amine] the pIC50 was greater than 7.00. Compound Cc1cccnc1-c1nc2cc(Nc3cccc(N4CCN5CCC[C@H]5C4)n3)ncc2s1 [Example 113, 6-[(8aS)—Octahydropyrrolo[1,2-a]pyrazin-2-yl]-N-[2-(3-methylpyridin-2-yl)-[1,3]thiazolo[5,4-c]pyridin-6-yl]pyridin-2-amine] has a pIC50 greater than 7.00. Cc1cccnc1-c1nc2cc(Nc3cccc(N4C[C@@H]5C[C@H]4CN5C4CCOCC4)n3)ncc2s1 [Example 117, N-[2-(3-Methylpyridin-2-yl)-[1,3]thiazolo[5,4-c]pyridin-6-yl]-6-[(1S,4S)-5-(oxan-4-yl)-2,5-diazabicyclo[2.2.1]heptan-2-yl]pyridin-2-amine] was tested, and the pIC50 was greater than 7.00. COc1ccc(N2C[C@@H]3C[C@H]2CN3C)nc1Nc1cc2nc(-c3ncccc3C)sc2cn1 [Example 118, 3-Methoxy-6-[(1S,4S)-5-methyl-2,5-diazabicyclo[2.2.1]heptan-2 yl]-N-[2-(3-methylpyridin-2-yl)-[1,3]thiazolo[5,4-c]pyridin-6-yl]pyridin-2-amine] showed a pIC50 greater than 7.00. With CN1C[C@@H]2C[C@H]1CN2c1nccc(Nc2cc3nc(-c4ccnc(C(C)(C)O)c4)sc3cn2)n1 [Example 121, 2-{4-[6-({2-[(1S,4S)-5-Methyl-2,5-diazabicyclo[2.2.1]heptan-2-yl]pyrimidin-4-yl}amino)-[1,3]thiazolo[5,4-c]pyridin-2-yl]pyridin-2-yl}propan-2-ol] the pIC50 was greater than 7.00. In the case of CN1C[C@@H]2C[C@H]1CN2c1nccc(Nc2cc3nc(-c4cccc(C(C)(C)O)c4)sc3cn2)n1 [Example 122, 2-{3-[6-({2-[(1S,4S)-5-Methyl-2,5-diazabicyclo[2.2.1]heptan-2-yl]pyrimidin-4-yl}amino)-[1,3]thiazolo[5,4-c]pyridin-2-yl]phenyl}propan-2-ol], the pIC50 was greater than 7.00. CN1C[C@@H]2C[C@H]1CN2c1cncc(Nc2cc3nc(-c4cc(N5CC[C@H](F)C5)ccn4)sc3cn2)n1 [Example 124, N-(2-{4-[(3S)-3-Fluoropyrrolidin-1-yl]pyridin-2-yl}-[1,3]thiazolo[5,4-c]pyridin-6-yl)-6-[(1S,4S)-5-methyl-2,5-diazabicyclo[2.2.1]heptan-2-yl]pyrazin-2-amine] gave a pIC50 greater than 7.00. Work on CN1C[C@@H]2C[C@H]1CN2c1cncc(Nc2cc3nc(-c4cc(N5CC[C@@H](F)C5)ccn4)sc3cn2)n1 [Example 125, N-(2-{4-[(3R)-3-Dluoropyrrolidin-1-yl]pyridin-2-yl}-[1,3]thiazolo[5,4-c]pyridin-6-yl)-6-[(1S,4S)-5-methyl-2,5-diazabicyclo[2.2.1]heptan-2-yl]pyrazin-2-amine] yielded a pIC50 greater than 7.00. For CN1C[C@@H]2C[C@H]1CN2c1nccc(Nc2cc3nc(-c4cccc(C(=O)N5CCCC5)c4)sc3cn2)n1 [Example 126, 2-[(1S,4S)-5-Methyl-2,5-diazabicyclo[2.2.1]heptan-2-yl]-N-{2-[3-(pyrrolidine-1-carbonyl)phenyl]-[1,3]thiazolo[5,4-c]pyridin-6-yl}pyrimidin-4-amine], the pIC50 was greater than 7.00. For CN(C)C(=O)c1cc(-c2nc3cc(Nc4ccnc(N5C[C@@H]6C[C@H]5CN6C)n4)ncc3s2)ccn1 [Example 127, N,N-Dimethyl-4-[6-({2-[(1S,4S)-5-methyl-2,5-diazabicyclo[2.2.1]heptan-2-yl]pyrimidin-4-yl}amino)-[1,3]thiazolo[5,4-c]pyridin-2-yl]pyridine-2-carboxamide], the pIC50 was greater than 7.00. For Cc1ncccc1-c1nc2cc(Nc3cccc(N4C[C@@H]5C[C@H]4CN5C)n3)ncc2s1 [Example 138, 6-[(1S,4S)-5-Methyl-2,5-diazabicyclo[2.2.1]heptan-2-yl]-N-[2-(2-methylpyridin-3-yl)-[1,3]thiazolo[5,4-c]pyridin-6-yl]pyridin-2-amine], the pIC50 was greater than 7.00.
